Assay results published in patent EP4772186A1, “USE AND COMPOSITION OF POSTBIOTIC OF LACTOBACILLUS PARACASEI ET-22” (Inner Mongolia Yili Industrial Group Co., Ltd., priority 2023, dated 2025).

Key:
fadA = test: RT-PCR of virulence factors in multi-species biofilm; format: cell-based, Fusobacterium nucleatum; conditions: relative to ET-22 viable bacteria (ET22-L) and ET-22 heat-inactivated bacteria (ET22-HK)
Method: 100 µl of saliva was added to a 24-well plate, then 100 µl of the corresponding concentration solution was added respectively to the experimental groups, and finally 800 µl of SHI medium was added. The plate was placed in an anaerobic box and cultured anaerobically at 37°C for 10 hours. Then, the supernatant was discarded, and the multi-species biofilm adhered to the well plate was obtained. After discarding the supernatant from the incubated biofilm, the biofilm adhered to the bottom of the well plate was re-suspended with sterile water by pipetting, transferred to a 1.5 ml centrifuge tube, and stored until gene sequencing was performed.
This example evaluated the effects of lysate, NAD, 2-hydroxy-3-phenylpropionic acid, polypeptide GP(Hyp)GAG, and peptidoglycan on halitosis virulence factors, including cdl, fadA, mgl, and gtfb. The gene cdl can regulate the expression of L-cysteine […], which can catalyze the degradation of protein substrate to produce VSC, thereby causing halitosis. Fusobacterium nucleatum secretes an amyloid-like adhesin (fadA) via the fap2-like autotransporter protein to enhance its virulence. […]
After the sample RNA was reverse-transcribing into cDNA, RT-PCR reaction was performed to detect biofilm-related virulence factors. Experimental results were calculated using the 2^-△△CT method. […]

[1] = system: indole, hexanoic acid, and propanoic acid; test: SPME-GC-MS of characteristic flavor compounds; format: cell-based, halitosis subjects (saliva)
Method: Fresh saliva was collected from 10 halitosis subjects (Halimeter index >120). Subjects were required not to consume any food or drink for 2 hours before donating saliva. Saliva was directly spat into a saliva collection tube, 5 ml per person, and mixed. The mixture was centrifuged at 4500 rpm for 10 minutes, and the supernatant was collected, aliquoted, and stored at -80°C for subsequent experimental studies.
(§1) Lysate group: In a headspace vial, 100 µl of saliva was added first, followed by separate addition of ET-22 viable bacteria (1.0×10^9 CFU/ml), ET-22 heat-inactivated bacterial cells (obtained by inactivating viable bacteria at 1.0×10^9 CFU/ml), and lysate (obtained by inactivating and then filtering viable bacteria at 1.0×10^9 CFU/ml), each at 100µl. Then, 800 µl of SHI medium was added. After filling with nitrogen, anaerobic cultivation was performed for 10 hours for loading on machine, and then SPME-GC-MS was used to test the change in content of volatile organic compound.
as §1, with “NAD group:” for “Lysate group:”, “by the” for “by”, “by heat-inactivating” for “by inactivating”, “and NAD (100 µg/ml),” for “and lysate (obtained by inactivating and then filtering viable bacteria at 1.0×10^9 CFU/ml),”, “machine,” for “machine, and”, “the changes” for “the change”
as §1, with “2-hydroxy-3-phenylpropionic acid group:” for “Lysate group:”, “by the” for “by”, “by heat-inactivating” for “by inactivating”, “and 2-hydroxy-3-phenylpropionic acid (100 µg/ml),” for “and lysate (obtained by inactivating and then filtering viable bacteria at 1.0×10^9 CFU/ml),”, “the changes” for “the change”
as §1, with “GP(HYP)GAG group:” for “Lysate group:”, “by the” for “by”, “by heat-inactivating” for “by inactivating”, “and GP(HYP)GAG (100 µg/ml),” for “and lysate (obtained by inactivating and then filtering viable bacteria at 1.0×10^9 CFU/ml),”, “the changes” for “the change”
Peptidoglycan group: In a headspace vial, 100 µl of saliva was added first, followed by separate addition of ET-22 viable bacteria (1.0×10^9 CFU/ml), ET-22 heat-inactivated bacterial cells (same as Example 1), and peptidoglycan (same as Example 1), each at 100µl. Then, 800 µl of SHI medium was added. After filling with nitrogen, anaerobic cultivation was performed for 10 hours for loading on machine, and then SPME-GC-MS was used to test the changes in content of volatile organic compound.
Helium was used as a carrier gas, with a rate remaining at 1.1 mL min-1. The injector temperature was set at 250°C. Oven temperature program was as follows: holding at 40°C for 1 min, then ramping to 120°C at a rate of 8°C/min, followed by increasing to 230°C at a rate of 5°C/min and holding for 10 minutes. The mass spectrometer was operated in electron ionization (EI) mode, with ion source temperature of 230°C, interface temperature of 200°C, and M/Z scan range of 30-400. To identify specific compounds, their mass spectra were compared with those of true compounds given in the NIST 17 database (V.05). The minimum matching quality for forward and reverse matches was 75/100. The flavor characteristic of each compound was determined based on data from the Good Scents Company Information System (http://www.thegoodscentscompany.com). […]

[2] = pure components 100 µg/ml, others from 1.0×10^9 CFU/ml, 10 hours
[3] = relative to ET-22 viable bacteria and heat-inactivated bacteria

With `O=C(O)C(O)Cc1ccccc1` (stereo not shown) [2-hydroxy-3-phenylpropionic acid] the “inhibitory effect on the expression of virulence factor fadA” value (fadA) was “better”, the hexanoic acid concentration [1, 2] was “significantly decrease” and the indole concentration [1, 2] was “significantly decrease”. For the same compound, the propanoic acid concentration [1, 2] was “significantly decrease”, the “intervention effect on hexanoic acid” value [1, 3] was “better” and the “intervention effect on indole” value [1, 3] was “better”. For the same compound, the “intervention effect on propanoic acid” value [1, 3] was “better”.
